# Tests used:
# [1] = test system: Promastigote forms of L. amazonensis; test: Antipromastigote assay (MTT); format: cell-based, Leishmania amazonensis; details: for IC50: Leishmania amazonensis, L. amazonensis promastigotes, 72 h, 26 °C, MTT, highest concentration tested 10 µg/mL, read-out: Promastigote IC50; for SI (selectivity index): GL50 in NIH/3T3 cells / IC50 in extracellular promastigotes
# Experimental: A standard strain of Leishmania (Leishmania amazonensis) (IFLA/BR/1967/PH8) was used for the evaluation of in vitro antileishmanial activity. The promastigote forms were grown in Schneider’s insect medium (Sigma-Aldrich®, SP/Brazil) supplemented with 20% foetal bovine serum (Sigma-Aldrich®, SP/Brazil), 10,000 U/mL penicillin, and 10 mg/mL streptomycin (Sigma-Aldrich®, SP/Brazil).
# Promastigote forms of L. amazonensis in the log growth phase (10^e6 parasites/mL) were added to 96-well plates and incubated in sextuplicate with the test samples (0.25–10.0 µg/mL). The microplates were incubated at 26 °C for 72 h. Cell viability was assessed by adding 5 mg/mL of MTT ([3-(4,5-dimethylthiazol-2-yl)-2,5-diphenyltetrazolium bromide] (Sigma-Aldrich® SP/Brazil). Results were expressed as the half-maximal inhibitory concentration (IC50) calculated by a nonlinear dose–response regression curve using the statistical program GraphPad PRISM 5.0. Pentamidine (Sigma-Aldrich ® SP/Brazil; 0.25–10 µg/mL) was used as a positive control, and pure Schneider culture medium was used as a negative control.
# rCPB2.8 = target: T1, rCPB2.8 (Leishmania mexicana, UniProt P36400); test: Determination of IC50 on rCPB2.8 (Z-FR-AMC); format: biochemical
# T1 construct: recombinant enzymes (r) lacking the C-terminal region
# Experimental: Cysteine proteases rCPB2.8, rCPB3, and rH84Y were assayed in 100 mM sodium acetate buffer containing 5 mM EDTA, 100 mM NaCl, 0.01% Triton X-100, and 20% glycerol, at pH 5.5. The enzymes were pre-incubated in the presence of 5 mM DTT for 5 min at 37 °C in a 1 mL final volume with constant stirring. Enzyme activities were monitored using fluorogenic probe Z-FR-AMC (9.25 µM final concentration), and the fluorescence was monitored by spectrofluorometry using fluorometer F2700 (Hitachi, Tokyo, Japan) set to λEx = 360 nm and λEm = 480 nm. The IC50 evaluation was performed using a progressive increase in the concentration of the compounds; the IC50 values were calculated using nonlinear regression, and the data were analysed by Grafit 5.0.13 software using Equation (1). (1) y=100%/1+(x/IC50)^S.
# NIH/3T3 fibroblasts = test: Cytotoxicity on mammalian cells (sulphorhodamine B); format: cell-based; details: for NIH/3T3 Cells GL50: 48 h, concentration that inhibited cell growth by 50%
# Experimental: The cytotoxic effect of the test samples was evaluated on NIH/3T3 fibroblasts, obtained from the Rio de Janeiro Cell Bank (Brazil). Cells were seeded in 96-well plates ([…]). After 24 h of fixation, cells were incubated for 48 h with test samples at 0.25–250 µg/mL, in triplicate. […] Doxorubicin (0.025–25 µg/mL was used as a positive control. Cells were fixed by adding 20% trichloroacetic acid and were subsequently stained with sulphorhodamine B (0.1%) diluted in acetic acid after 48 h of exposure. Absorbance values were read on the PT-READER microplate instrument (Thermoplate®), and growth percentages were calculated according to procedures in the literature. Cytotoxicity activity was expressed as the concentration of drug that inhibited cell growth by 50% (GL50), and growth was determined by nonlinear regression using Origin 6.0 software (OriginLab). The statistical significance was analysed using an unpaired Student’s t-test or a one-way analysis of variance. A p-value < 0.05 was considered statistically relevant. In addition, the SI was calculated using the ratio between cytotoxicity in NHI-3T3 cells (GL50) and activity in the parasite forms (IC50).
# T1 sequence (P36400 126-343): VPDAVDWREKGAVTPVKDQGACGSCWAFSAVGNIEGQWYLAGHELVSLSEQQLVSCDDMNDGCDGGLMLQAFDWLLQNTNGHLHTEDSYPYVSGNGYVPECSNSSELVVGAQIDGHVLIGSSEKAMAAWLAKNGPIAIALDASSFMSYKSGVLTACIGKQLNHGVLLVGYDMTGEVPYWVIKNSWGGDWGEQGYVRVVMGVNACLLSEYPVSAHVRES
Compound,IC50 [1],IC50 (rCPB2.8) [nM],NIH/3T3 Cells GL50 (NIH/3T3 fibroblasts) [µM],SI (selectivity index) [1],Times less efficient in inhibiting rCPB2.8 than compound 2a (rCPB2.8; ratio of IC50 values) [times],Cytotoxicity against mammal cells (in words) (NIH/3T3 fibroblasts; NIH/3T3 cells)
"C[C@@H]1[C@H](O)[C@@H](C)/C=C/C=C/C=C/C=C/C=C/C=C/C=C/[C@H](O[C@@H]2O[C@H](C)[C@@H](O)[C@H](N)[C@@H]2O)C[C@@H]2O[C@](O)(C[C@@H](O)C[C@@H](O)[C@H](O)CC[C@@H](O)C[C@@H](O)CC(=O)O[C@H]1C)C[C@H](O)[C@H]2C(=O)O [Amphotericin B, reference compound]",100 nM,–,–,–,–,–
"O=C(/C=C/c1ccc2c(c1)OCO2)c1ccc(Cl)cc1 [Compound 1b, (E)-3-(benzo[d][1, 3]dioxol-5-yl)-1-(4-chlorophenyl)prop-2-en-1-one]",> 10 µg/mL,7420 ± 250,811.27,–,–,–
"COc1ccc(/C=C/C(=O)c2ccccc2O)cc1 [Compound 2a, (E)-1-(2-hydroxyphenyl)-3-(4-methoxyphenyl)prop-2-en-1-one]",710 nM,2350 ± 190,940.14,1324,–,–
"O=C(/C=C/c1ccc2c(c1)OCO2)c1ccccc1O [Compound 2b, (E)-3-(benzo[d][1, 3]dioxol-5-yl)-1-(2-hydroxyphenyl)prop-2-en-1-one]",> 10 µg/mL,20600 ± 1060,910.58,–,8.78,–
"COc1ccc(/C=C/C(=O)c2cc(Cl)ccc2O)cc1 [Compound 3a, (E)-1-(5-chloro-2-hydroxyphenyl)-3-(4-methoxyphenyl)prop-2-en-1-one]",600 nM,7110 ± 320,>865.86,>1443.10,–,noncytotoxic
"O=C(/C=C/c1ccc2c(c1)OCO2)c1cc(Cl)ccc1O [Compound 3b, (E)-3-(benzo[d][1, 3]dioxol-5-yl)-1-(5-chloro-2-hydroxyphenyl)prop-2-en-1-one]",960 nM,18400 ± 1220,59.13,61.59,–,–
"COc1ccc(/C=C/C(=O)c2cc(F)ccc2O)cc1 [Compound 4a, (E)-1-(5-fluoro-2-hydroxyphenyl)-3-(4-methoxyphenyl)prop-2-en-1-one]",> 10 µg/mL,3350 ± 170,901.09,–,–,–
"O=C(/C=C/c1ccc2c(c1)OCO2)c1cc(F)ccc1O [Compound 4b, (E)-3-(benzo[d][1, 3]dioxol-5-yl)-1-(5-fluoro-2-hydroxyphenyl)prop-2-en-1-one]",1950 nM,6610 ± 410,>873.36,–,–,–
"COc1cccc2c1C(=O)c1c(O)c3c(c(O)c1C2=O)C[C@@](O)(C(=O)CO)C[C@@H]3O[C@H]1C[C@H](N)[C@H](O)[C@H](C)O1 [Doxorubicin, reference compound]",–,–,0.05,–,–,–
"N=C(N)c1ccc(OCCCCCOc2ccc(C(=N)N)cc2)cc1 [Pentamidine, reference compound]",800 nM,–,–,–,–,–
"CN(C)c1ccc(-c2oc3ccccc3c(=O)c2O)cc1 [f12c, 2-(4-(dimethylamino)phenyl)-3-hydroxy-4H-chromen-4-one]",730 nM,10300 ± 390,759.13,1039.90,–,–
"COc1ccc(-c2oc3ccc(Cl)cc3c(=O)c2O)cc1 [f13a, 6-chloro-3-hydroxy-2-(4-methoxyphenyl)-4H-chromen-4-one]",1080 nM,1880 ± 70,>825.87,>764.70,–,–
"CN(C)c1ccc(-c2oc3ccc(Cl)cc3c(=O)c2O)cc1 [f13c, 6-chloro-2-(4-(dimethylamino)phenyl)-3-hydroxy-4H-chromen-4-one]",> 10 µg/mL,14200 ± 650,>791.76,–,–,–

# From publication PMC9866541, “Flavonoid Derivatives as New Potent Inhibitors of Cysteine Proteases: An Important Step toward the Design of New Compounds for the Treatment of Leishmaniasis” (Microorganisms, 2023)
